Results reported in patent US20080286338A1, “Drug delivery system with scleral lens” (Boston Foundation for Sight, priority 2007, published 2008).
Like-named read-outs stand apart in the source and are kept apart here.

Columns and labels:
[1] = tested on: corneal neovascularization; assay: Off-label topical AVASTIN for corneal neovascularization using the scleral lens drug delivery system; assay type: in vivo
Source text: This study using AVASTIN® off-label, topically, to treat corneal neovascularization was repeated using the scleral lens drug delivery system. […] This therapeutic effect was achieved without BAK. Instead, the expanded pre-corneal tear film of the scleral lens drug delivery system provided adequate bioavailability of the drug without exposing the cornea to BAK.

[2] = tested on: corneal neovascularization; details: solution of 1% AVASTIN and 0.01% BAK, one drop, four times per day for at least thirty days, topical drops; cited from earlier work

bevacizumab [AVASTIN®]
therapeutic effect on corneal neovascularization ([1]; one drop of 1% AVASTIN added to expanded pre-corneal tear film of artificial tears in scleral lens twice per day, without BAK, by thirty days, continued benefit over subsequent sixty days): achieved a therapeutic effect by thirty days with continued benefit over the subsequent sixty days
regression of corneal neovascularization (clinical photos, FIG. 5) ([1]; scleral lens drug delivery system): regression of corneal neovascularization
therapeutic effect on corneal neovascularization [2]: Therapeutic effect was reported
